Experimental data: PubChem BioAssay AID1918940 (Molecular Pharmacology Branch, DTP, NCI, 2023)

System: NCI-H211 complex spheroid viability
Assay: Anticancer human tumor NCI-H211 cell line growth inhibition [LSD1];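 note: luminescent viability read after seven days of drug exposure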;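 for viability, T/C: 100% = DMSO vehicle control viability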
Details: for IC50: curve of first compound; for viability, T/C: stronger effect = lower value
Outline: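 Drug combinations with the LSD1 inhibitor iadademstat tested on tumor cells co-cultured as spheroids with endothelial cells and mesenchymal stem cells. Concentrations descended in half-log increments from clinical Cmax or 10 microM.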

[1] = second compound 0.1 µM, first compound 0.0316 µM
[2] = second compound 0.1 µM, first compound 0.1 µM
[3] = second compound 0.1 µM, first compound 0.316 µM
[4] = second compound 0.1 µM, first compound 1 µM
[5] = second compound 0.1 µM, first compound 3.16 µM
[6] = second compound 0.1 µM, first compound 10 µM
[7] = second compound 0.316 µM, first compound 0.0316 µM
[8] = second compound 0.316 µM, first compound 0.1 µM
[9] = second compound 0.316 µM, first compound 0.316 µM
[10] = second compound 0.316 µM, first compound 1 µM
[11] = second compound 0.316 µM, first compound 3.16 µM
[12] = second compound 0.316 µM, first compound 10 µM
[13] = second compound 1 µM, first compound 0.0316 µM
[14] = second compound 1 µM, first compound 0.1 µM
[15] = second compound 1 µM, first compound 0.316 µM
[16] = second compound 1 µM, first compound 1 µM
[17] = second compound 1 µM, first compound 3.16 µM
[18] = second compound 1 µM, first compound 10 µM
[19] = second compound 3.16 µM, first compound 0.0316 µM
[20] = second compound 3.16 µM, first compound 0.1 µM
[21] = second compound 3.16 µM, first compound 0.316 µM
[22] = second compound 3.16 µM, first compound 1 µM
[23] = second compound 3.16 µM, first compound 3.16 µM
[24] = second compound 3.16 µM, first compound 10 µM
[25] = second compound 10 µM, first compound 0.0316 µM
[26] = second compound 10 µM, first compound 0.1 µM
[27] = second compound 10 µM, first compound 0.316 µM
[28] = second compound 10 µM, first compound 1 µM
[29] = second compound 10 µM, first compound 3.16 µM
[30] = second compound 10 µM, first compound 10 µM

CC(C)c1c(-c2ccccc2)nc2c(C#N)c[nH]n2c1=O + NC1CCC(NC2CC2c2ccccc2)CC1
IC50 (second compound 0.1 µM): > 10 µM
IC50 (second compound 0.316 µM): > 10 µM
IC50 (second compound 1 µM): > 10 µM
IC50 (second compound 3.16 µM): > 10 µM
IC50 (second compound 10 µM): < 0.0316 µM
viability, T/C [1]: 74.2%
viability, T/C [2]: 74.7%
viability, T/C [3]: 72%
viability, T/C [4]: 81.5%
viability, T/C [5]: 65.8%
viability, T/C [6]: 85.8%
viability, T/C [7]: 84.8%
viability, T/C [8]: 81.7%
viability, T/C [9]: 72.4%
viability, T/C [10]: 72.8%
viability, T/C [11]: 67.2%
viability, T/C [12]: 75.5%
viability, T/C [13]: 69.9%
viability, T/C [14]: 80.7%
viability, T/C [15]: 77.3%
viability, T/C [16]: 60.5%
viability, T/C [17]: 62.3%
viability, T/C [18]: 70%
viability, T/C [19]: 46.6%
viability, T/C [20]: 56%
viability, T/C [21]: 61.6%
viability, T/C [22]: 65.5%
viability, T/C [23]: 62%
viability, T/C [24]: 60.5%
viability, T/C [25]: 35.2%
viability, T/C [26]: 37.4%
viability, T/C [27]: 32.7%
viability, T/C [28]: 34.9%
viability, T/C [29]: 32.2%
viability, T/C [30]: 32.8%

CC1COCCN1c1cc(-c2ccnn2C)c2ccnc(-c3ccn[nH]3)c2n1 (stereo not given) + NC1CCC(NC2CC2c2ccccc2)CC1
IC50 (second compound 0.1 µM): < 0.00316 µM
IC50 (second compound 0.316 µM): 0.00354 µM
IC50 (second compound 1 µM): 0.00326 µM
IC50 (second compound 3.16 µM): < 0.00316 µM
IC50 (second compound 10 µM): < 0.00316 µM
viability, T/C (second compound 0.1 µM, first compound 0.00316 µM): 47%
viability, T/C (second compound 0.1 µM, first compound 0.01 µM): 15.9%
viability, T/C [1]: 3.03%
viability, T/C [2]: 1.88%
viability, T/C [3]: 1.99%
viability, T/C [4]: 1.97%
viability, T/C (second compound 0.316 µM, first compound 0.00316 µM): 54.4%
viability, T/C (second compound 0.316 µM, first compound 0.01 µM): 12.7%
viability, T/C [7]: 5.04%
viability, T/C [8]: 2.3%
viability, T/C [9]: 1.83%
viability, T/C [10]: 2.11%
viability, T/C (second compound 1 µM, first compound 0.00316 µM): 51.1%
viability, T/C (second compound 1 µM, first compound 0.01 µM): 14.4%
viability, T/C [13]: 3.22%
viability, T/C [14]: 2.14%
viability, T/C [15]: 1.98%
viability, T/C [16]: 2.52%
viability, T/C (second compound 3.16 µM, first compound 0.00316 µM): 39.7%
viability, T/C (second compound 3.16 µM, first compound 0.01 µM): 13.1%
viability, T/C [19]: 2.82%
viability, T/C [20]: 2.03%
viability, T/C [21]: 1.63%
viability, T/C [22]: 2.4%
viability, T/C (second compound 10 µM, first compound 0.00316 µM): 18.2%
viability, T/C (second compound 10 µM, first compound 0.01 µM): 3.8%
viability, T/C [25]: 1.39%
viability, T/C [26]: 1%
viability, T/C [27]: 0.87%
viability, T/C [28]: 1.21%

COc1ccc([C@@H](O)c2cc(-c3ncnc4cc(N5CCOCC5)ccc34)c(F)cc2Cl)nn1 + NC1CCC(NC2CC2c2ccccc2)CC1
IC50 (second compound 0.1 µM): 3.7 µM
IC50 (second compound 0.316 µM): 3.37 µM
IC50 (second compound 1 µM): 3.48 µM
IC50 (second compound 3.16 µM): 3.7 µM
IC50 (second compound 10 µM): < 0.0316 µM
viability, T/C [1]: 72.7%
viability, T/C [2]: 63%
viability, T/C [3]: 69.5%
viability, T/C [4]: 74.2%
viability, T/C [5]: 55.8%
viability, T/C [6]: 13.7%
viability, T/C [7]: 66.9%
viability, T/C [8]: 69.7%
viability, T/C [9]: 73.2%
viability, T/C [10]: 71.2%
viability, T/C [11]: 52.1%
viability, T/C [12]: 12.6%
viability, T/C [13]: 69.2%
viability, T/C [14]: 63.6%
viability, T/C [15]: 65.3%
viability, T/C [16]: 81.7%
viability, T/C [17]: 53.4%
viability, T/C [18]: 11.3%
viability, T/C [19]: 73.6%
viability, T/C [20]: 63.3%
viability, T/C [21]: 64%
viability, T/C [22]: 81.5%
viability, T/C [23]: 56.1%
viability, T/C [24]: 11.1%
viability, T/C [25]: 36.9%
viability, T/C [26]: 36.7%
viability, T/C [27]: 36.8%
viability, T/C [28]: 54.3%
viability, T/C [29]: 49%
viability, T/C [30]: 8.03%
